Source: ChEMBL document CHEMBL1743341, “Cytochrome p450 enzymes mechanism based inhibitors: common sub-structures and reactivity” (Curr Drug Metab, 2005)
pKi: −log10 of the molar value. One block for each compound: values may come before it.

Tests used:
Type in all cases: ADME
Cytochrome P450 3A5 = Cytochrome P450 3A5 (Homo sapiens, UniProt P20815); assay: Mechanism based inhibition of human cytochrome P450 3A5
CYP1A2 = target: T1, CYP1A2 (Homo sapiens, UniProt P05177); assay: (§1) Mechanism based inhibition of human cytochrome P450 1A2 measured by phenacetin O-deethylation (POD); conditions: human, probe phenacetin (O-deethylation, POD)
T1 sequence (P05177 whole entry): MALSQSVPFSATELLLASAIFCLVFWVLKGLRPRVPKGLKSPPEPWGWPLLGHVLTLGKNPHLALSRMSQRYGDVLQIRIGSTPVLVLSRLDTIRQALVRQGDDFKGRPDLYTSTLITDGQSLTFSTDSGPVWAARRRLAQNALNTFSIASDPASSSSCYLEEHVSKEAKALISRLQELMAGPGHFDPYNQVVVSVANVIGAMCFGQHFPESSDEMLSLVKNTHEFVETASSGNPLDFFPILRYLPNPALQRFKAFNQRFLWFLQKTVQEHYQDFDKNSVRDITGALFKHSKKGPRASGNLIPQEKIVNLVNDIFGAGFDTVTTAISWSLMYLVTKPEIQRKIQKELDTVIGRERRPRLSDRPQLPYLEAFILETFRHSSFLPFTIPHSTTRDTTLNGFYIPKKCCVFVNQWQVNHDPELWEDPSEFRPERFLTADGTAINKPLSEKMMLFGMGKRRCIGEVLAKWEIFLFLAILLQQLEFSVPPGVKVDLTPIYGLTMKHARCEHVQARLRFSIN

Cytochrome P450 1A2 [1] = target: T2, Cytochrome P450 1A2 (Homo sapiens, UniProt P05177); assay: as §1
T2 sequence (P05177 whole entry): T1 sequence (P05177 whole entry)

Cytochrome P450 2C9 = Cytochrome P450 2C9 (Homo sapiens, UniProt P11712); assay: Mechanism based inhibition of human cytochrome P450 2C9 measured by diclofenac 4-hydroxylation
Sequence of Cytochrome P450 2C9 (P11712 whole entry): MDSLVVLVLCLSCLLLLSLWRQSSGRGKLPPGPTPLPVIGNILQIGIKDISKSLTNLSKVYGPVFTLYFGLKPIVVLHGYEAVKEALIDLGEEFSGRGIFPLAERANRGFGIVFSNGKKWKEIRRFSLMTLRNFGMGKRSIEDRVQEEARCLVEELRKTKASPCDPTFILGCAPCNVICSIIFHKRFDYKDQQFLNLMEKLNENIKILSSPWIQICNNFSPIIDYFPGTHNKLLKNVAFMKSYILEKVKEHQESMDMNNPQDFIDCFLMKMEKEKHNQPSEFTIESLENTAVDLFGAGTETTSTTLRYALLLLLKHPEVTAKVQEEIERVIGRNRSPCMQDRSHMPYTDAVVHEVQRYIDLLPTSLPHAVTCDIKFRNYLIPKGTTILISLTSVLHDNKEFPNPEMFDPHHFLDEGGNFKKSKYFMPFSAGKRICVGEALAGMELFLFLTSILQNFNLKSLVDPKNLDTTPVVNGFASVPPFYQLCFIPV

Cytochrome P450 3A4 [2] = target: T3, Cytochrome P450 3A4 (Homo sapiens, UniProt P08684); assay: Mechanism based inhibition of human cytochrome P450 3A4 measured by testosterone 6-beta hydroxylation
T3 sequence (P08684 whole entry): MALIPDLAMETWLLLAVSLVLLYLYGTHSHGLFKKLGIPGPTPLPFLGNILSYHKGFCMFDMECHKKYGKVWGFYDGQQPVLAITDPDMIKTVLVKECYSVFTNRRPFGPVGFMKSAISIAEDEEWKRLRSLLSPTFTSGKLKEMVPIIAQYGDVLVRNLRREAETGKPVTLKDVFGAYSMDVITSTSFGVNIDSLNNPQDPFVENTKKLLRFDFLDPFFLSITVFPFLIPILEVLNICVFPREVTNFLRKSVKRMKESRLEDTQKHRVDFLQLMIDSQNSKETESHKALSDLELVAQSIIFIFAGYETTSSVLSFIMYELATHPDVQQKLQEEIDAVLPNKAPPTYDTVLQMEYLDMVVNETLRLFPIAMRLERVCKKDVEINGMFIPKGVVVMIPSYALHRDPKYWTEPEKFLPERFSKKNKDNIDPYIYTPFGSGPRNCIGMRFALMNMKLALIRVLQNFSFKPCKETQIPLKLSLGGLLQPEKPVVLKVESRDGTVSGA

Cytochrome P450 1A1 = target: T4, Cytochrome P450 1A1 (Homo sapiens, UniProt P04798); assay: Mechanism based inhibition of human cytochrome P450 1A1 measured by 7-ethoxyresorufin O-deethylation (EROD)
T4 sequence (P04798 whole entry): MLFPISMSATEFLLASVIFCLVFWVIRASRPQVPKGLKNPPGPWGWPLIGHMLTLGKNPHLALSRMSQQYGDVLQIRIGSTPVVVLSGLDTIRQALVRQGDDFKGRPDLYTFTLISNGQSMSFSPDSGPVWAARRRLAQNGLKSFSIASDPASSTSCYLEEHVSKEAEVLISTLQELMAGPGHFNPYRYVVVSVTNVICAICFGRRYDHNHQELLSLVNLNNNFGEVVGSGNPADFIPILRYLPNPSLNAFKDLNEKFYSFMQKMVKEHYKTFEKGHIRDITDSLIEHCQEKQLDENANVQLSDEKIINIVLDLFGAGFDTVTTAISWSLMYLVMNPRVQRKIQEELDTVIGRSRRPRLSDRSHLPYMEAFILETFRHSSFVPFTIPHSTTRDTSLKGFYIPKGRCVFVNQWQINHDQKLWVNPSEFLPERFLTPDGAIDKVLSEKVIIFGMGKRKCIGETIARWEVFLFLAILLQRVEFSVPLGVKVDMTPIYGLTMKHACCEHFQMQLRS

Cytochrome P450 1A2 [3] = target: T2, Cytochrome P450 1A2; assay: Mechanism based inhibition of human cytochrome P450 1A2 measured by 7-ethoxyresorufin O-deethylation (EROD)
Cytochrome P450 1B1 = target: T5, Cytochrome P450 1B1 (Homo sapiens, UniProt Q16678); assay: Mechanism based inhibition of human cytochrome P450 1B1 measured by 7-ethoxyresorufin O-deethylation (EROD)
T5 sequence (Q16678 whole entry): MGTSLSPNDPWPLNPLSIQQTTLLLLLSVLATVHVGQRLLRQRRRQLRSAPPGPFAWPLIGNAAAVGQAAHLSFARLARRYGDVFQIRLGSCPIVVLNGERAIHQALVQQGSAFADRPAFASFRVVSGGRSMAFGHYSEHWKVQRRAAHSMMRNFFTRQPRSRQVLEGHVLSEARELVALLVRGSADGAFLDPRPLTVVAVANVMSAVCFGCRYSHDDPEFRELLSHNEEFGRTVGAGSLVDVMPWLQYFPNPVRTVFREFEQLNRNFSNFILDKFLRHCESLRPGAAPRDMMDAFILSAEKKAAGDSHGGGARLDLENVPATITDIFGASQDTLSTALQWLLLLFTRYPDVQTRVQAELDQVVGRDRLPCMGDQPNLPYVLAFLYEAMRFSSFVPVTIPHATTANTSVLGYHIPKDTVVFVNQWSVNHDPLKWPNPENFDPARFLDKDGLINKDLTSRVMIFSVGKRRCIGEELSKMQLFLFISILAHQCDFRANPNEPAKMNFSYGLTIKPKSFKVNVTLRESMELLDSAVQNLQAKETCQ

CYP2B1 = target: T6, CYP2B1 (Rattus norvegicus, UniProt P00176); assay: (§2) Mechanism based inhibition of rat cytochrome P450 CYP2B1 measured by 7-EFC O-deethylation activity; conditions: rat, probe 7-EFC (O-deethylation)
T6 sequence (P00176 whole entry): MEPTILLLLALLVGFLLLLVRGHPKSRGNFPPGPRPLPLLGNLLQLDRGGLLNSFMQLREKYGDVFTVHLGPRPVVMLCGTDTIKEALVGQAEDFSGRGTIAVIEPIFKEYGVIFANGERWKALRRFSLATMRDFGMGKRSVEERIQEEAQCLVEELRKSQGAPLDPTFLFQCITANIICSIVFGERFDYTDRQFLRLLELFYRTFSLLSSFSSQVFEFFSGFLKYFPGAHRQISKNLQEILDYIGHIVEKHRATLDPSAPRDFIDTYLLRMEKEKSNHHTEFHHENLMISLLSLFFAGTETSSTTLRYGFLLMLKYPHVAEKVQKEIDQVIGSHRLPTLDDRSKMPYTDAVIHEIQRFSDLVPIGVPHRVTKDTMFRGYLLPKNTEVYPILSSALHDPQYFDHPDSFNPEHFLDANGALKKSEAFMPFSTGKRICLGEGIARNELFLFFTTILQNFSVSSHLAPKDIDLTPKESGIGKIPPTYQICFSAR

Cytochrome P450 2B1 [4] = target: T7, Cytochrome P450 2B1 (Rattus norvegicus, UniProt P00176); assay: as §2
T7 sequence (P00176 whole entry): T6 sequence (P00176 whole entry)

Cytochrome P450 2B1 [5] = target: T7, Cytochrome P450 2B1; assay: Mechanism based inhibition of rat cytochrome P450 CYP2B1; conditions: rat
Cytochrome P450 3A4 [6] = target: T3, Cytochrome P450 3A4; assay: Mechanism based inhibition of human cytochrome P450 3A4, partition ratio

Sequence of Cytochrome P450 3A5 (P20815 whole entry): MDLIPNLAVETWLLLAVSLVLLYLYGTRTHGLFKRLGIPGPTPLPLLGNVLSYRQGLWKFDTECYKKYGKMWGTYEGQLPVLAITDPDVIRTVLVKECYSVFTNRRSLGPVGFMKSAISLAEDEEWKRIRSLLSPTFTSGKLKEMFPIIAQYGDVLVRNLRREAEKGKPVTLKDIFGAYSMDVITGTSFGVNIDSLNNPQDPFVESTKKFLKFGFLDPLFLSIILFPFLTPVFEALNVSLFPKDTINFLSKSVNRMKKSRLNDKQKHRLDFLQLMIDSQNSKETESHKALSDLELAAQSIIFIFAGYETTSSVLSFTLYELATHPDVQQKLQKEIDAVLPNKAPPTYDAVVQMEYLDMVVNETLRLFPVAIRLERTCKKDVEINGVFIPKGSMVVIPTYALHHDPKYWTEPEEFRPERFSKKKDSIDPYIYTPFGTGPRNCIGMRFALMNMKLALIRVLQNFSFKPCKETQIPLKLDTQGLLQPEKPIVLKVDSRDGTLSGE

Structure (SMILES): CC(C)(C)NC(=O)[C@@H]1C[C@@H]2CCCC[C@@H]2CN1C[C@@H](O)[C@H](Cc1ccccc1)NC(=O)[C@H](CC(N)=O)NC(=O)c1ccc2ccccc2n1
mechanism based inhibition (Cytochrome P450 3A5): Cytochrome P450 mechanistic inhibitor: PMID 15523003

Structure (SMILES): CCOC(=O)C1=C(C)N=C(C)/C(=C(/O)OCC)C1CC (stereo not drawn)
mechanism based inhibition (Cytochrome P450 2C9): Cytochrome P450 mechanistic inhibitor: PMID 9107543 | mechanism based inhibition (Cytochrome P450 3A4 [2]): Cytochrome P450 mechanistic inhibitor: PMID 9107543 | mechanism based inhibition (Cytochrome P450 1A1): Cytochrome P450 mechanistic inhibitor: PMID 9107543 | mechanism based inhibition (Cytochrome P450 1A2 [3]): Cytochrome P450 mechanistic inhibitor: PMID 9107543

Structure (SMILES): C#Cc1cc2ccc3cccc4ccc(c1)c2c34
mechanism based inhibition (Cytochrome P450 1A1): Cytochrome P450 mechanistic inhibitor: PMID 9760279 | mechanism based inhibition (Cytochrome P450 1B1): Cytochrome P450 mechanistic inhibitor: PMID 9760279

Structure (SMILES): CC(C)(C)NC(=O)[C@@H]1CN(Cc2cccnc2)CCN1C[C@@H](O)C[C@@H](Cc1ccccc1)C(=O)N[C@H]1c2ccccc2C[C@H]1O.O
mechanism based inhibition (Cytochrome P450 3A5): Cytochrome P450 mechanistic inhibitor: PMID 15523003

Structure (SMILES): C#CCN(C)CCCOc1ccc(Cl)cc1Cl [CLORGILINE]
kinact (CYP2B1): 0.00467 s⁻¹ | pKi (Cytochrome P450 2B1 [4]): 5.82

Structure (SMILES): CC(C)(OO)c1ccccc1 [CUMENE HYDROPEROXIDE]
mechanism based inhibition (Cytochrome P450 2B1 [5]): Cytochrome P450 mechanistic inhibitor: PMID 8416964

Next, values leading:

kinact (CYP1A2): 0.000617 s⁻¹ | pKi (Cytochrome P450 1A2 [1]): 4.01
Structure (SMILES): C[C@@H](c1cc2ccccc2s1)N(O)C(N)=O

kinact (CYP1A2): 0.0002 s⁻¹ | pKi (Cytochrome P450 1A2 [1]): 4.18
Structure (SMILES): C[C@H](c1cc2ccccc2s1)N(O)C(N)=O

kinact (CYP1A2): 0.000583 s⁻¹ | pKi (Cytochrome P450 1A2 [1]): 3.93
Structure (SMILES): CC(c1cc2ccccc2s1)N(O)C(N)=O (racemic) [ZILEUTON]

Partition ratio (Cytochrome P450 3A4 [6]): 41
Structure (SMILES): CC(C)Nc1cccnc1N1CCN(C(=O)c2cc3cc(NS(C)(=O)=O)ccc3[nH]2)CC1 [DELAVIRDINE]
